Experimental data taken from patent US20210236425A1, “NEW TREATMENT OF INTERSTITIAL LUNG DISEASES” (INIM PHARMA AB, priority 2018, published 2021).

Key:
[1] = Dissolution kinetics in SLF, USP2 apparatus; assay type: physicochemical; settings: SLF pH 7.4, 37° C., 5 mg in 500 mL
Experimental: The dissolution kinetics of the 3 different loading samples described in Example 5 were characterized in SLF (pH 7.4; made up with the salts NaCl, NaHCO3, KCl, MgCl2, CaCl2, Na2SO4, sodium citrate dihydrate, NaH2PO4 (all from Sigma)) at 37° C. using a USP2 dissolution apparatus with stirring speed 50 rpm. Free, unloaded thalidomide was used as control. Concentration of drug at set times after release was measured by a UV/vis spectrometer (Cecil 3021) at 220 nm.
The dose of thalidomide was calculated as 5 mg of thalidomide in 500 mL of SLF.

[2] = Dissolution kinetics in SLF with Tween 80, non-sink conditions; assay type: physicochemical; settings: SLF with 1 wt % Tween 80, 80 mg dosage
Experimental: Given that thalidomide rapidly recrystallizes in solution, an experiment was conducted in the presence of a surfactant to stabilize the dissolved drug.
Tween 80 (1 wt %; Sigma) was added in the dissolution bath in SLF media. The dosage was increased to 80 mg to investigate the dissolution kinetics at high drug concentration, to simulate dissolution in non-sink conditions.

O=C1CCC(N2C(=O)c3ccccc3C2=O)C(=O)N1 (centres unmarked) [free drug, thalidomide]
time in which Cmax was achieved [1]: 30 min
time to reach Cmax [2]: 30 min
